Data reported in publication PMC7114147 (Antiviral Research, 2013).
Values joined by “and” are separate entries in the source; they are usually repeats but may differ in a detail not shown here. Equal entries are not always repeated. Where two headings read alike, the source gives them in different places.

Key:
A/FM/1/47 (A/H1N1) = experiment: microbe, parasite or virus in culture; assay type: cell-based; conditions: Influenza A virus, H1N1, MDCK, read-out: Antiviral activity (EC50) A/FM/1/47
MDCK cells = conditions: dog
endosomal pH = assay type: cell-based
A/Ned/378/05 (A/H1N1) = experiment: microbe, parasite or virus in culture; assay type: cell-based; conditions: Influenza A virus, H1N1, MDCK, read-out: Antiviral activity (EC50) A/Ned/378/05
A/H1N1 (A/PR/8/34) = experiment: microbe, parasite or virus in culture; assay type: cell-based, influenza A virus; conditions: read-out: Antiviral EC50 A/H1N1 (A/PR/8/34)
A/Ishikawa/7/82 (A/H3N2) = experiment: microbe, parasite or virus in culture; assay type: cell-based; conditions: Influenza A virus, read-out: Antiviral activity (EC50) A/Ishikawa/7/82
A/H3N2 (A/HK/7/87) = experiment: microbe, parasite or virus in culture; assay type: cell-based
[1] = system: influenza virus A/PR/8/34; assay type: cell-based
A/Victoria/3/75 (A/H3N2) = experiment: microbe, parasite or virus in culture; assay type: cell-based; conditions: Influenza A virus, H3N2, read-out: EC50 A/Victoria/3/75
in vitro = conditions: dog, Cytotoxicity CC50
A/M2 wt channel = A/M2 wt channel (Influenza A virus, UniProt P0DOF5); experiment: biochemical; conditions: pH 5.5, read-out: Activity against A/M2 wt channel, Inhibition at 100 μM (%)
Sequence of A/M2 wt channel (P0DOF5 whole entry, looked up): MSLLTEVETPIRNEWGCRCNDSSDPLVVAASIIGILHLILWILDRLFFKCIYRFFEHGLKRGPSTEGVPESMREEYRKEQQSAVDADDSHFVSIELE

[2] = Influenza A virus, H1N1|PR/8, MDCK
[3] = Influenza A virus, H3N2, MDCK, read-out: Antiviral EC50 A/H3N2 (A/HK/7/87)
[4] = Influenza A virus, H3N2, MDCK, read-out: Antiviral activity (EC50) A/HK/7/87

Structure (SMILES)	EC50 (A/FM/1/47 (A/H1N1))	Cytotoxicity (MCC) (MDCK cells)	EC50 (A/Ned/378/05 (A/H1N1))	EC50 (A/H1N1 (A/PR/8/34); [2])	EC50 (A/Ishikawa/7/82 (A/H3N2))	EC50 (A/H3N2 (A/HK/7/87); [3])	EC50 (A/H3N2 (A/HK/7/87); [4])	EC99 (2-log10 reduction in virus yield) [1]	further results
NC12CC3CC(CC(C3)C1)C2 [Amantadine, amantadine]	5.1 ± 2.4 µM	500 µM	2 µM	53 µM	11 ± 8 µM	3.4 µM	3.4 ± 1.7 µM	179 μM and 179 ± 53 μM	Effect on acridine orange staining pattern (endosomal pH; 500 μM): neither of the polycyclic amines tested
C1=CC2C3C4C5C=CC4C24CNCC54C13 [Compound 3, 3-azahexacyclo[7.6.0.0^1,5.0^5,12.0^6,10.0^11,15]pentadeca-7,13-diene]				14 µM		16 µM			EC50 (A/Victoria/3/75 (A/H3N2)): > 100 µM; EC50 (A/H1N1 (A/PR/8/34)): 16 µM; CC50 (in vitro): > 100 µM; EC50 (A/H3N2 (A/HK/7/87); read-out: Antiviral EC50 A/H3N2 (A/HK/7/87)): 14 µM
CCC(CC)O[C@@H]1C=C(C(=O)O)C[C@H](N)[C@H]1NC(C)=O [Oseltamivir carboxylate]	16 ± 2 µM	>100 µM	1.5 ± 0.8 µM		3 ± 1 µM		29 ± 5 µM		
NC(=O)c1ncn([C@@H]2O[C@H](CO)[C@@H](O)[C@H]2O)n1 [Ribavirin]	10 ± 1 µM	>100 µM	7.6 ± 1 µM		8.8 ± 0.3 µM		8.6 ± 0.4 µM	11 ± 1 μM	
CC(N)C12CC3CC(CC(C3)C1)C2 (centres unmarked) [Rimantadine, rimantadine]	1.9 ± 1.1 µM	>100 µM	0.5 ± 0.22 µM	4.6 µM	0.45 ± 0.15 µM	0.17 µM	0.17 ± 0.08 µM	48 μM and 48 ± 5 μM	Cytotoxicity MCC (minimum cytotoxic concentration) (MDCK cells): 500 µM; CC50 (in vitro): 230 µM; inhibition at 100 µM (A/M2 wt channel): 91.4 ± 0.8%
CC(=O)N[C@H]1[C@H]([C@H](O)[C@H](O)CO)OC(C(=O)O)=C[C@@H]1N=C(N)N [Zanamivir]	5 ± 1.6 µM	>100 µM	1.7 ± 0.5 µM		8.7 ± 3.8 µM		1.2 ± 0.9 µM		
CO/C1=C\C(C)=C\[C@@H](C)[C@@H](O)[C@@H](C)C/C(C)=C/C=C/[C@H](OC)[C@@H]([C@@H](C)[C@@H](O)[C@H](C)[C@@]2(O)C[C@@H](O)[C@H](C)[C@@H](C(C)C)O2)OC1=O [bafilomycin A1]									Effect on acridine orange lysosomal red fluorescence (endosomal pH): completely inhibited
CCN(CC)CCCC(C)Nc1ccnc2cc(Cl)ccc12 (centres unmarked) [chloroquine]									Effect on acridine orange lysosomal red fluorescence (endosomal pH): a decrease in lysosomal pH and a shift to yellow fluorescence
